# According to ChEMBL document CHEMBL1144213, “Synthesis and antiproliferative activity of unnatural enantiomers of 7-epi-goniofufurone and crassalactone C” (Bioorg Med Chem Lett, 2008):
# Key:
# HL-60 = assay: Cytotoxicity against human HL-60 cells after 72 hrs by MTT assay; type: functional, cell-based; settings: HL-60, 72 h
# Jurkat = assay: Cytotoxicity against human Jurkat cells after 72 hrs by MTT assay; type: functional, cell-based
# Raji = assay: Cytotoxicity against human Raji cells after 72 hrs by MTT assay; type: functional, cell-based
# HeLa = assay: Cytotoxicity against human HeLa cells after 72 hrs by MTT assay; type: functional, cell-based
# MRC5 = assay: Cytotoxicity against human MRC5 cells after 72 hrs by MTT assay; type: cell-based; settings: MRC5, 72 h
Structure (SMILES),IC50 (HL-60),IC50 (Jurkat),IC50 (Raji),IC50 (HeLa),IC50 (MRC5)
O=C1C[C@H]2O[C@H]([C@@H](O)c3ccccc3)[C@H](O)[C@H]2O1,22 µM,18.6 µM,1.25 µM,0.89 µM,> 100 µM
O=C1C[C@@H]2O[C@@H]([C@H](O)c3ccccc3)[C@@H](O)[C@@H]2O1,13.9 µM,0.05 µM,> 100 µM,4.38 µM,> 100 µM
O=C1C[C@@H]2O[C@@H]3[C@@H](O[C@H]3c3ccccc3)[C@@H]2O1,0.025 µM,28.4 µM,0.45 µM,0.97 µM,> 100 µM
O=C(/C=C/c1ccccc1)O[C@H](c1ccccc1)[C@H]1O[C@@H]2CC(=O)O[C@@H]2[C@H]1O [(+)-CRASSALACTONE C],> 100 µM,25.4 µM,15.5 µM,11.2 µM,> 100 µM
O=C(/C=C/c1ccccc1)O[C@@H](c1ccccc1)[C@@H]1O[C@H]2CC(=O)O[C@H]2[C@@H]1O [CRASSALACTONE C (ENANTIOMERIC MIX)],1.87 µM,15.7 µM,0.57 µM,1.18 µM,> 100 µM
COc1cccc2c1C(=O)c1c(O)c3c(c(O)c1C2=O)C[C@@](O)(C(=O)CO)C[C@@H]3O[C@H]1C[C@H](N)[C@H](O)[C@H](C)O1 [DOXORUBICIN],0.92 µM,0.03 µM,,,
